Where “and” joins values, the source holds several entries; their conditions need not be identical. Equal values may be shown once.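 Five concentrations, 48 hours, 96-well plates. Here, GI50 denotes the concentration required for 50% inhibition of growth. TGI: concentration producing complete growth inhibition.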
Experiments:
Assay in all cases: inhibition of tumour cell growth, NCI panel, 48 h
[1] = system: HCT-116 colon
[2] = system: HL-60(TB) leukemia
[3] = system: HOP-62 NSCLC
[4] = system: HOP-92 NSCLC
[5] = system: SF-295 CNS
[6] = system: SNB-75 CNS
[7] = system: SR leukemia
[8] = system: SW-620 colon
[9] = system: MDA-MB-435
[10] = system: DU-145 prostate

Structure (SMILES)	GI50 [1]	TGI [1]	GI50 [2] [µM]	TGI [2] [µM]	GI50 [3] [µM]	TGI [3]	GI50 [4] [µM]	TGI [4] [µM]	GI50 [5] [µM]	TGI [5] [µM]	GI50 [6] [µM]	TGI [6]	GI50 [7] [µM]	TGI [7] [µM]	GI50 [8] [µM]	TGI [8]	GI50 [9] [µM]	TGI [9] [µM]	TGI [10] [µM]	GI50 [10] [µM]
CCC[CH2][Sn]([CH2]CCC)([O]C(=O)c1cc(F)cc(F)c1)[O][Sn]([CH2]CCC)([CH2]CCC)[O]C(=O)c1cc(F)cc(F)c1	1.35 µM	2.63 µM	0.374	2.23	5	14.3 µM	1.25	2.52	1.67	3.06	1.26	2.71 µM	0.372	4.32	0.626	1.92 µM				
OC1CCC[C@@H]1Sc1ccccc1 (stereo partly drawn)		> 100 µM		> 100		> 100 µM		> 100		> 100		> 100 µM		> 100		> 100 µM				
CCOC(=O)c1c2cccccc2n2c(=O)cc(C)nc12				> 100		> 100 µM				> 100				> 100		> 100 µM				
O=C(O)CCSC(=S)Nc1cccc(F)c1		> 100 µM				> 100 µM		98.9		> 100		> 100 µM		> 100		> 100 µM				
O=C(O)CCSC(=O)Nc1ccccc1Cl		> 100 µM				> 100 µM		> 100		> 100		> 100 µM		> 100		> 100 µM				
COC(=O)C(=O)C(C(=O)C=C(C)C)C(=O)C(=O)Nc1nc2ccc([N+](=O)[O-])cc2s1 (stereo not drawn)		> 100 µM		> 100		> 100 µM		74.2				63.7 µM				> 100 µM				
Cc1ccc(NC(=O)CC/C(CC(=O)C(C)(C)C)=N\Nc2ccc([N+](=O)[O-])cc2[N+](=O)[O-])cc1C		> 100 µM				61.9 µM		> 100		> 100				> 100		> 100 µM				
COc1cc(/C=C\c2ccc(OC(C)=O)cc2)cc(OC)c1OC		> 100 µM				> 100 µM		> 100				6.93 µM		> 100		> 100 µM				
COc1cc(CC(C(=O)O)C(=O)O)c(OC)cc1CC(C(=O)O)C(=O)O		> 100 µM		> 100		> 100 µM		> 100		> 100		> 100 µM		> 100		> 100 µM				
CC1=C2[C@H](c3ccccc3)C3C=CC2(c2ccccc23)N(C(=O)C(c2ccccc2)c2ccccc2)C1=O (stereo partly drawn)		> 100 µM		> 100		> 100 µM		> 100		> 100		> 100 µM		> 100		> 100 µM				
COC(=O)C(C(=O)C(=O)Nc1ccc(OC)cc1[N+](=O)[O-])c1nc2cc(C)c(C)cc2[nH]c1=O (stereo not drawn)		> 100 µM		> 100		> 100 µM		> 100		> 100		> 100 µM		> 100		> 100 µM				
COCOCC[C@@H]1CC=CC(NC(=O)OCc2ccccc2)C1/C=C/C(=O)CCC1OCCO1 (stereo partly drawn)		33.1 µM		51		> 100 µM		> 100		> 100		> 90 µM		23.6		59.5 µM				
C/C(CCn1[nH]c(=O)ccc1=O)=N\Nc1ccc([N+](=O)[O-])cc1[N+](=O)[O-]		> 100 µM		> 100		> 100 µM		> 100		> 100		> 100 µM		> 100		> 100 µM				
CCCCCCCCCOC(=S)NCCCCC		44.8 µM		39.5		80.9 µM		53.9		> 100		> 100 µM		50.6		> 100 µM				
CCOC(=O)NC(=O)c1cn(CCN2CCNCC2)c(=O)[nH]c1=O		> 100 µM		> 100		> 100 µM		> 100		> 100				> 100		> 100 µM				
COc1ccc(/C=c2/sc3n(c2=O)NC(c2ccc(Cl)cc2)NN=3)cc1 (stereo not drawn)		> 100 µM						> 100		> 100		78.1 µM		> 100		> 100 µM				
CC(=O)O/N=C(Cl)/C(Cl)=N/OC(C)=O		> 100 µM		> 100		> 100 µM		> 100		> 100		> 100 µM		> 100		> 100 µM				
Cn1nc(-c2ccccc2)c(C(=O)/C=C/c2ccc(F)cc2)c(N2CCOCC2)c1=O		14.3 µM		40.5				36.4		32.4						47.1 µM				

Structure (SMILES)	GI50 [1]	TGI [1]	GI50 [2] [µM]	TGI [2] [µM]	GI50 [3] [µM]	TGI [3]	GI50 [4] [µM]	TGI [4] [µM]	GI50 [5] [µM]	TGI [5] [µM]	GI50 [6] [µM]	TGI [6]	GI50 [7] [µM]	TGI [7] [µM]	GI50 [8] [µM]	TGI [8]	GI50 [9] [µM]	TGI [9] [µM]	TGI [10] [µM]	GI50 [10] [µM]
COC(=O)C1=C(O)[C@H](C(=O)OC)[C@]2(O)[C@@H](C(=O)OC)[C@H]1C[C@@H](c1ccc(OC(=O)/C=C/c3ccco3)cc1)[C@@H]2C(=O)OC	4.9 µM	17.6 µM	13.9	75.1	15.7	30.5 µM	18.1	48.3	19.6	65.2					36.3	> 100 µM	21.7	66.8		
COc1cc2c(cc1OC)c1c(OC)c(OC)cc3c1c1c2sc(=S)n1CC3		> 100 µM		81.8				> 100		> 100		> 100 µM				> 100 µM				
N#Cc1cc(NC(=O)c2ccccc2)c(=O)n2c1[nH]c1ccccc12		> 100 µM		74.6		88.1 µM				> 100		68.3 µM				> 100 µM				
C[C@@H]1CC[C@@H]2[C@@H](C)C[C@H]3[C@@H]4C(C)(C)OC(=O)[C@]4(C)C(=O)[C@@]23C1=O		> 100 µM		> 100		> 100 µM				> 100		> 100 µM				> 100 µM		> 100	> 100	
COc1ccc(NC(=O)CCc2cc(C(C)(C)C)n[nH]2)cc1		> 100 µM		> 100		> 100 µM		> 100		> 100		> 100 µM		> 100		> 100 µM				
C=C1C(=O)OC2C1C(OC(=O)/C(C)=C\C)CC1(CO1)C1C(O)C=C(C)C21O (stereo not drawn)		3.29 µM		> 100		41.1 µM		31.3		41.7		29.2 µM		24.2		3.34 µM				
Cc1cc(C)nc(NS(=O)(=O)c2ccc(NC(=O)c3ccc(Cl)c4c(Nc5ccc(S(=O)(=O)N=C(N)N)cc5)c5ccccc5nc34)cc2)n1		> 100 µM		25.1		> 100 µM		67.7		> 100		> 100 µM				76 µM				
Cc1ccc(/C=C(\C#N)c2ccccc2)cc1		> 100 µM				> 100 µM		> 100		> 100		> 100 µM		> 100		> 100 µM				
NNC(=O)N/N=C1\C(=O)N(c2nccs2)C(=O)C(=O)C1c1nc2ccccc2s1 (stereo not drawn)		> 100 µM				> 100 µM		> 100		> 100		> 100 µM				> 100 µM				
Cc1nc(Nc2ccccc2)sc1C(=O)CC(=O)C(=O)NC12CC3CC(CC(C3)C1)C2		> 100 µM		> 100		> 100 µM		89.4		> 100		> 100 µM				> 100 µM				
COc1ccc(/C=C\c2cc(OC)c(OC)c(OC)c2)c(O)c1O	0.136 µM and 1.33 µM	14.3 µM and 24 µM		0.376	1.98	68.8 µM and 109 µM	0.0588		0.0286		2.36	20.7 µM and 48.2 µM			0.0715	16.9 µM and 49.9 µM		0.0163		
CN(C)CCNC(=O)c1cccc2ncc(-c3ccccc3)nc12		22 µM		42.4		34.7 µM		59.1		58.5		32.9 µM		6.95		63.5 µM				
COc1ccc2c(c1)N(CCO)C1=C(C(=O)OC1)C2c1ccccc1 (stereo not drawn)	1.97 µM	15.6 µM	1.15	2.84	2.18	> 50 µM			0.888	2.73	1.01	> 50 µM	1.69	> 50	1.64	> 50 µM			6.01	1.74
CCCCCCCCCCCCCC(=O)OCC1OC(n2cc(F)c(=O)[nH]c2=O)C(N)C(OC(=O)CCCCCCCCCCCCC)C1O (stereo not drawn)		> 100 µM		> 100		> 100 µM		> 100		> 100		> 100 µM		> 100		> 100 µM				
NNC(=S)Nc1cccc(Cl)c1		> 100 µM		> 100		> 100 µM				> 100		> 100 µM				> 100 µM		> 100	> 100	
CC(=O)C1CCC2C3CC=C4CC(SC(=N)N)CCC4(C)C3CCC12C (stereo not drawn)			1.88	4.19	1.93	3.6 µM			1.49	2.99	1.58	4.15 µM			1.62	3.16 µM			10.3	3.13
CN(C)CCC1(C2=CCCC2)CC/C(=C\c2ccccc2Cl)C1=O (stereo not drawn)		24.6 µM		19.6				26.3		27.9						25.2 µM				
CCOC(=O)C1SC(=Nc2ccc(Cl)cc2C)N=C1C (stereo not drawn)		28.4 µM		27.1		43.2 µM		30		52.9		69.9 µM				53.7 µM				
